In publication PMC6825211 (Nature Communications, 2019):
Values joined by “and” are separate entries in the source; they are usually repeats but may differ in a detail not shown here. Equal values may be shown once.

Experiments:
[1] = molecular target: T1, MST1 (Rattus norvegicus, UniProt A0A8I6A0F8); test: CETSA assay; format: cell-based; settings: 5 μM, 2 h, INS-1E, 55 °C
T1 construct: endogenous in cells; host or cells: INS-1E (rat beta-cell line)
Description: Thereafter, cells were pelleted at 200 g for 4 min and resuspended in PBS supplemented with phosphatase and protease inhibitor cocktail at the cell density of 3 Mill./100 µl. Each cell suspension was distributed into five 0.2-ml PCR tubes with 100 µl of cell suspension per tube. PCR tubes were heated at their designated temperature (43–55 °C) on a thermal cycler for 3 min, incubated at room temperature for 3 min, and snap-frozen in liquid nitrogen. Cell lysates were prepared by freezing–thawing the samples in liquid nitrogen twice, and soluble MST1 was detected by western blot analysis.

[2] = system: MLD–STZ C57BL/6J mice; test: MLD–STZ model: β-cell mass; format: in vivo, mouse; parameters: BCM: unit not given here
Description: C57Bl/6J mice were injected with 40 mg/kg streptozotocin or citrate buffer for 5 consecutive days. […] In d, basal glucose values were normalized to 100%. e Insulin secretion measured from retro-orbital blood draw during an ipGTT measured before (0 min) and 15 min after glucose injection; data are expressed as the ratio of secreted insulin at 15 min/0 min (stimulatory index). f The ratio of secreted insulin and glucose is calculated at fed state. g–i Mice were killed at day 35. g β-cell mass (given as percentage of the whole pancreatic section from ten sections spanning the width of the pancreas) and quantitative analyses from triple staining for h TUNEL or i Ki67, insulin, and DAPI expressed as percentage of TUNEL- or Ki67-positive β-cells ±SEM. An average number of 2331 (h), or 26369 (i) β-cells were counted. n = 9 mice/group for (a); n = 4–12 for (b); n = 5–15 for (c) and (d); n = 12–19 for (e); n = 8–14 for (f); n = 4–9 for (g); n = 4–11 for (h); and n = 6–11 mice/groupfor (i); all from three independent experiments).
For morphometric data, ten sections (spanning the width of the pancreas) per mouse were analyzed. Pancreatic tissue area and insulin-positive area were determined by computer-assisted measurements by using a Nikon MEA53200 (Nikon GmbH, Dusseldorf, Germany) microscope, and images were acquired by using NIS-Elements software (Nikon). β-cell mass was obtained by multiplying the β-cell fraction by the weight of the pancreas.

[3] = system: MLD–STZ C57BL/6J mice; test: MLD–STZ model: PDX1, NKX6.1, Glut2 immunostaining; format: in vivo, mouse
Description: Representative triple stainings for PDX1 (red, a), Glut2 (red, b), or NKX6.1 (red, c), insulin (green), and DAPI (blue) are shown from vehicle-, STZ-, and STZ/Nera-treated mice (n = 8, 4, 9 & 9 mice/group). Scale bar, 100 μm
Mouse pancreases were dissected and fixed in 4% formaldehyde at 4 °C for 12 h before embedding in paraffin[62]. […] Slides were mounted with Vectashield with 4′6-diamidino-2-phenylindole (DAPI) (Vector Labs). β-cell apoptosis was analyzed by the terminal deoxynucleotidyl transferase-mediated dUTP nick-end labeling (TUNEL) technique according to the manufacturer’s instructions (In Situ Cell Death Detection Kit, TMR red; Roche) and double stained for insulin. Fluorescence was analyzed by using a Nikon MEA53200 (Nikon GmbH, Dusseldorf, Germany) microscope, and images were acquired by using NIS-Elements software (Nikon).

[4] = MLD–STZ model: body weight; format: in vivo, mouse; settings: 5 mg/kg i.p. daily, 35 days
[5] = system: obese diabetic Lepr db/db mice; test: db/db model: β-cell proliferation (Ki67); format: in vivo, mouse; settings: dbdb mice
[6] = molecular target: T2, MST1 (Homo sapiens, UniProt Q13043); test: biochemical
T2 sequence (Q13043 1-487): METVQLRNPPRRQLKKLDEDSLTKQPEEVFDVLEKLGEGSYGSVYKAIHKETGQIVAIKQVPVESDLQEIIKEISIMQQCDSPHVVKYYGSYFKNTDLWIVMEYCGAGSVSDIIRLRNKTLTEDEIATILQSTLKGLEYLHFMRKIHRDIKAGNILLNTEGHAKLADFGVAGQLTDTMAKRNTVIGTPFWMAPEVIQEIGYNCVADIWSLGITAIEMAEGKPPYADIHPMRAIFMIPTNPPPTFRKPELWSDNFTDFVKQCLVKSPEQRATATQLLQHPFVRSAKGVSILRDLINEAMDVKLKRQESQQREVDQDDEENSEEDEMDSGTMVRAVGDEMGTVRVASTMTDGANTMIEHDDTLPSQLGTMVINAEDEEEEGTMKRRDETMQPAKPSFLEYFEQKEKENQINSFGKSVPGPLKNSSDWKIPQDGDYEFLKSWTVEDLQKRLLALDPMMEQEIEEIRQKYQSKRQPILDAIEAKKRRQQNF

[7] = molecular target: T2, MST1; test: LanthaScreen Eu kinase binding assay (HTS and dose response); parameters: purchased ThermoFisher; settings: three experiments
Description: A total of 39 hits were selected for 9-point dose response confirmation in triplicate, starting at 1 μM followed by 1:5 serial dilution.
Compounds in 1000× DMSO stock solution were dispensed by using Echo555 liquid dispensing system (Labcyte, CA) to 1536-well microplate (Corning, NY). Kinase buffer A (ThermoFisher, MA) was prepared and added to each well. […] Each reagent was added to the microplate in equal volume.

[8] = db/db model: body weight; settings: 5 mg/kg i.p. daily, 31 days

T1 sequence (A0A8I6A0F8 1-487): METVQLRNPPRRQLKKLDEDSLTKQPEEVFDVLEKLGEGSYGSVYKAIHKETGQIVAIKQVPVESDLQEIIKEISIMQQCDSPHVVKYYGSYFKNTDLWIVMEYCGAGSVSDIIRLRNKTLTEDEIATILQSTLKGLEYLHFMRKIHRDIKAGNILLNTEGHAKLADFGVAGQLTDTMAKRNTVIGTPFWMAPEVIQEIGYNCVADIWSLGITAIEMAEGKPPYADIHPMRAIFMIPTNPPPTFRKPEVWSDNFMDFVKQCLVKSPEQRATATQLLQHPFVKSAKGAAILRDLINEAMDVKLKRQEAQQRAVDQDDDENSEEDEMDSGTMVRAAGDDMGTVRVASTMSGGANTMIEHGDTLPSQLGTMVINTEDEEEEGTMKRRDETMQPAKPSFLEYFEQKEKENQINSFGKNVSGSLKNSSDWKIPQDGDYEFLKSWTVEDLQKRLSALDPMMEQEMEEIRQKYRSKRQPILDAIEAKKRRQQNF

With `CCOc1cc2ncc(C#N)c(Nc3ccc(OCc4ccccn4)c(Cl)c3)c2cc1NC(=O)/C=C/CN(C)C` [neratinib] the “thermal stabilization of MST1 in intact cells” value [1] was “MST1 stabilization at 55 °C”, the BCM ([2]; NeraCtr group (no STZ), MEAN) was 1.179 and the BCM ([2]; NeraCtr group (no STZ), individual mice) was 1.212 and 1.511 and 1.035 and 0.9571. The BCM ([2]; NeraSTZ group, MEAN) was 0.6212, the BCM ([2]; NeraSTZ group, individual mice) was 1.314 and 0.4366 and 0.7768 and 0.269 and 0.7149 and 0.2555 and 0.5691 and 0.3836 and 0.8706 and the β-cell mass ([2]; STZ mice, day 35) was “restored β-cell mass”. For the same compound, the “β-cell Glut2 expression” value ([3]; MLD–STZ mice) was “restored β-cell Glut2 expression”, the “loss of nuclear PDX1- and NKX6.1-positive cells and islet architecture in MLD–STZ mice” value ([3]; mouse, in vivo) was “markedly attenuated” and the body weight [4] was “no influence on body weight”. For the same compound, the Ki67%/ mouse ([5]; Mean) was 1.047%, the Ki67%/ mouse ([5]; individual mice) was 0.4896% and 1.365% and 0.6515% and 1.681% and the inhibition at 10 µM ([6]; read-out: % inhibition by neratinib) was 98%. The inhibition at 3 µM ([6]; read-out: MST1 inhibition) was 97%, the “MST1 (% activity)” value ([7]; neratinib 0.02 nM) was 87.31% and 98.20% and 108.86% and the “MST1 (% activity)” value ([7]; neratinib 0.06 nM) was 99.80% and 103.92%. For the same compound, the activity at 60 pM ([7]; neratinib 0.06 nM) was 114%, the “MST1 (% activity)” value ([7]; neratinib 0.17 nM) was 91.02% and 100.09% and the activity at 0.00017 µM ([7]; neratinib 0.17 nM) was 97.1%. The “MST1 (% activity)” value ([7]; neratinib 0.51 nM) was 98.60% and 98.84%, the activity at 0.00051 µM ([7]; neratinib 0.51 nM) was 101% and the “MST1 (% activity)” value ([7]; neratinib 1.52 nM) was 88.42% and 89.31%. The activity at 0.00152 µM ([7]; neratinib 1.52 nM) was 103%, the “MST1 (% activity)” value ([7]; neratinib 4.57 nM) was 67.07% and 80.02% and the activity at 0.00457 µM ([7]; neratinib 4.57 nM) was 82.2%. The “MST1 (% activity)” value ([7]; neratinib 13.72 nM) was 46.34% and 78.85% and 63.80%, the “MST1 (% activity)” value ([7]; neratinib 41.15 nM) was 53.70% and 49.03% and the activity at 0.04115 µM ([7]; neratinib 41.15 nM) was 48.9%. The “MST1 (% activity)” value ([7]; neratinib 123.46 nM) was 24.15% and 30.50%, the activity at 0.12346 µM ([7]; neratinib 123.46 nM) was 30.6% and the “MST1 (% activity)” value ([7]; neratinib 370.37 nM) was 7.98% and 6.57%. The activity at 0.37037 µM ([7]; neratinib 370.37 nM) was 11.7%, the “MST1 (% activity)” value ([7]; neratinib 1111.11 nM) was 8.75% and 1.83% and the “MST1 (% activity)” value ([7]; neratinib 3333.33 nM) was 4.17% and -2.20% and -1.83%. The body weight [8] was “no influence on body weight”.
